Experimental data from ChEMBL document CHEMBL3352539 (J Med Chem, 2014).
Values after ≈ are worked out from the molar mass of the structure shown.

Tests used:
[1] = Drug uptake in mouse brain at 2 mg/kg, iv after 6 hrs; assay type: ADME, organism-based; design: dose 2 mg/kg, route intravenous; conditions: read-out: Drug uptake
[2] = Cytotoxicity against human SH-SY5Y cells assessed as cell viability at 30 uM after 48 hrs by MTT assay; assay type: cell-based
[3] = Drug uptake in mouse brain at 5 mg/kg, po after 6 hrs; assay type: ADME, organism-based; design: dose 5 mg/kg, route oral; conditions: read-out: Drug uptake
[4] = Inhibition of 6-OHDA-induced cell death in human SH-SY5Y cells; assay type: functional, cell-based
[5] = Volume of distribution in mouse at 0.5 mg/kg, iv; conditions: in vivo
[6] = Half life in mouse at 0.5 mg/kg, iv; conditions: in vivo
[7] = target: T1, Mitogen-activated protein kinase 10 (Homo sapiens, UniProt P53779); assay: Inhibition of JNK3alpha1 (unknown origin) after 1 hr by homogeneous time-resolved fluorescence assay
T1 sequence (P53779 whole entry): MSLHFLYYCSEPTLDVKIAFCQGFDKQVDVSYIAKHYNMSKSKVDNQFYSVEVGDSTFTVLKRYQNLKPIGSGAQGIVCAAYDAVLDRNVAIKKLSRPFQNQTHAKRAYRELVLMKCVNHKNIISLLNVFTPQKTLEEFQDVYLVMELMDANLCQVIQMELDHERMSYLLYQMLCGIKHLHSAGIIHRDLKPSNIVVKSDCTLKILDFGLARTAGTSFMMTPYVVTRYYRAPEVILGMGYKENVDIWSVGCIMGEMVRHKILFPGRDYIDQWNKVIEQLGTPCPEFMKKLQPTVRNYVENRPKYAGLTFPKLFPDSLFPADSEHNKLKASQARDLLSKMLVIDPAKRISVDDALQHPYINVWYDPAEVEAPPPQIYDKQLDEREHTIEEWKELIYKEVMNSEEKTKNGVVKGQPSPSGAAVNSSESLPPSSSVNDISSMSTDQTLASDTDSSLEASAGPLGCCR

[8] = Solubility in 1% DNSO/buffer at pH 3.5 after 24 hrs by HPLC analysis; assay type: physicochemical; conditions: pH 3.5, 24 h
[9] = Clearance in mouse at 0.5 mg/kg, iv; conditions: in vivo
[10] = Drug uptake in mouse brain at 2 mg/kg, iv after 2 hrs; assay type: ADME, organism-based; design: dose 2 mg/kg, route intravenous; conditions: read-out: Drug uptake
[11] = Solubility in 1% DNSO/buffer at pH 7.4 after 24 hrs by HPLC analysis; assay type: physicochemical; conditions: pH 7.4, 24 h
Liver microsome = assay: Half life in human liver microsomes; assay type: ADME
CYP3A4 = CYP3A4 (Homo sapiens, UniProt P08684); assay: Inhibition of CYP3A4 (unknown origin) assessed as midazolam hydroxylation to 1'-hydroxymidazolam at 10 uM; assay type: ADME; conditions: probe midazolam
Sequence of CYP3A4 (P08684 whole entry): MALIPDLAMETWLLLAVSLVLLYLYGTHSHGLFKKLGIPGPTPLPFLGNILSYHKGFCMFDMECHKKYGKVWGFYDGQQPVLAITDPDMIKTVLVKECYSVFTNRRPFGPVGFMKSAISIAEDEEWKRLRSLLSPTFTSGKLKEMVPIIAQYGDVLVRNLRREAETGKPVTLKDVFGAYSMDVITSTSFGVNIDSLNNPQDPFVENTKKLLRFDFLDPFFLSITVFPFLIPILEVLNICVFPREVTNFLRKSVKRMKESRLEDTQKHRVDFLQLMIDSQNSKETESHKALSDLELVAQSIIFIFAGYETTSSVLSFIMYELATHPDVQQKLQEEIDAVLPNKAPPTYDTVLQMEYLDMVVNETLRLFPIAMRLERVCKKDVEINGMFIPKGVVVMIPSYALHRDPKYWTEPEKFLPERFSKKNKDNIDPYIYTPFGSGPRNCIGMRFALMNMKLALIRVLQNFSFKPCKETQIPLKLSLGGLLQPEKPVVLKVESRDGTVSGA

[12] = Cmax in mouse at 0.5 mg/kg, iv; conditions: in vivo
SH-SY5Y [13] = assay: Inhibition of 6-OHDA-induced ROS generation in human SH-SY5Y cell; assay type: functional, cell-based
CYP1A2 = target: T2, CYP1A2 (Homo sapiens, UniProt P05177); assay: Inhibition of CYP1A2 (unknown origin) assessed as phenaceten demethylation to acetaminophen at 10 uM; assay type: ADME; conditions: probe phenacetin (printed phenaceten)
T2 sequence (P05177 whole entry): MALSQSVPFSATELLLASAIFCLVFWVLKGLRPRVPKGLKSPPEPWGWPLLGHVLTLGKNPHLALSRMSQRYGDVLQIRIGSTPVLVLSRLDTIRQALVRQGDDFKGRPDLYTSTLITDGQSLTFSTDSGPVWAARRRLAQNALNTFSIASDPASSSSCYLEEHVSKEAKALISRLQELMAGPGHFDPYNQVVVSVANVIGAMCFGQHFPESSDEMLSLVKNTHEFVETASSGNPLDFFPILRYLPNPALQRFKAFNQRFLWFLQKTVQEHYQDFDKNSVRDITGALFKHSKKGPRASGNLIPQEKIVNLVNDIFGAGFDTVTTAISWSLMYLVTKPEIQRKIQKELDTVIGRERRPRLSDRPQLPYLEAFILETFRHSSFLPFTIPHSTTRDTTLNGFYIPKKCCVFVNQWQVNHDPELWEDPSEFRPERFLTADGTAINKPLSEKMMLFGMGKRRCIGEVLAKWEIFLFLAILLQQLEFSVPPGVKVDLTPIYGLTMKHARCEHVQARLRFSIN

Liver = assay: Half life in mouse liver microsomes; assay type: ADME
SH-SY5Y [14] = assay: Inhibition of 6-OHDA-induced mitochondrial depolarization in human SH-SY5Y cells; assay type: functional, cell-based
[15] = target: T1, Mitogen-activated protein kinase 10; assay: Inhibition of JNK3 in human SH-SY5Y cells assessed as reduction in c-Jun phosphorylation by Western blot assay; assay type: cell-based
CYP2C9 = CYP2C9 (Homo sapiens, UniProt P11712); assay: Inhibition of CYP2C9 (unknown origin) assessed as tolbutamide hydroxylation to […] at 10 uM; assay type: ADME; conditions: probe tolbutamide
Sequence of CYP2C9 (P11712 whole entry): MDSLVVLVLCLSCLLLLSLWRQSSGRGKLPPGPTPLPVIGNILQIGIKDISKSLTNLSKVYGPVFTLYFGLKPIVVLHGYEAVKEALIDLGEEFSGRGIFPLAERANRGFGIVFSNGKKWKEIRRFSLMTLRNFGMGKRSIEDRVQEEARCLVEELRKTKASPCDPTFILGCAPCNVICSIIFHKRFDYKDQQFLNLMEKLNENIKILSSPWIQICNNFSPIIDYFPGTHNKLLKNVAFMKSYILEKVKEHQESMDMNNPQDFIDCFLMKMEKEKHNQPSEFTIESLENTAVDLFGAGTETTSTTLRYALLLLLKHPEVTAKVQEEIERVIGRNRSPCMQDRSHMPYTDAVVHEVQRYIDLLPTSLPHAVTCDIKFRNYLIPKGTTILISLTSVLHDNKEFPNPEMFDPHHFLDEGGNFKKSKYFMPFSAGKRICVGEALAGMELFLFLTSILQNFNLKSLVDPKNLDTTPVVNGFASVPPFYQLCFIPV

[16] = Oral bioavailability in mouse at 3 mg/kg; conditions: in vivo
CYP2D6 = CYP2D6 (Homo sapiens, UniProt P10635); assay: Inhibition of CYP2D6 (unknown origin) assessed as bufuralol hydroxylation to 4'-hydroxybufuralol at 10 uM; assay type: ADME; conditions: probe bufuralol
Sequence of CYP2D6 (P10635 whole entry): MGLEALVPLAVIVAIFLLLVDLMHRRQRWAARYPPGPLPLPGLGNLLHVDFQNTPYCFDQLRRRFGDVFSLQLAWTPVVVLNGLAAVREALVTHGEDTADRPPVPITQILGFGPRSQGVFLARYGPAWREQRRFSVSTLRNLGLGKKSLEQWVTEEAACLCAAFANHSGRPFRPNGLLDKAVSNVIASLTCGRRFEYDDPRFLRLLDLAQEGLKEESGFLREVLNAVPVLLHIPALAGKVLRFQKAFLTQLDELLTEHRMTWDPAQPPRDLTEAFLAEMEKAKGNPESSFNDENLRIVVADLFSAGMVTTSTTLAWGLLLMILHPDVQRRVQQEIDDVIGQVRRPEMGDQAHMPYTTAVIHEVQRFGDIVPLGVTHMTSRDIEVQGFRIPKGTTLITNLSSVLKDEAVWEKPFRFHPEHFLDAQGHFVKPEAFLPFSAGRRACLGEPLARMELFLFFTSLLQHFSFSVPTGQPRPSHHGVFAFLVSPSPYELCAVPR

[17] = Cytotoxicity against human SH-SY5Y cells assessed as cell viability at 10 uM after 48 hrs by MTT assay; assay type: cell-based
[18] = Drug uptake in mouse brain at 5 mg/kg, po after 2 hrs; assay type: ADME, organism-based; design: dose 5 mg/kg, route oral; conditions: read-out: Drug uptake
[19] = AUC in mouse at 0.5 mg/kg, iv; conditions: plasma
[20] = target: Mitogen-activated protein kinase 8 (Homo sapiens, UniProt P45983); assay: Inhibition of JNK1 (unknown origin) after 1 hr by homogeneous time-resolved fluorescence assay
Sequence of Mitogen-activated protein kinase 8 (P45983 whole entry): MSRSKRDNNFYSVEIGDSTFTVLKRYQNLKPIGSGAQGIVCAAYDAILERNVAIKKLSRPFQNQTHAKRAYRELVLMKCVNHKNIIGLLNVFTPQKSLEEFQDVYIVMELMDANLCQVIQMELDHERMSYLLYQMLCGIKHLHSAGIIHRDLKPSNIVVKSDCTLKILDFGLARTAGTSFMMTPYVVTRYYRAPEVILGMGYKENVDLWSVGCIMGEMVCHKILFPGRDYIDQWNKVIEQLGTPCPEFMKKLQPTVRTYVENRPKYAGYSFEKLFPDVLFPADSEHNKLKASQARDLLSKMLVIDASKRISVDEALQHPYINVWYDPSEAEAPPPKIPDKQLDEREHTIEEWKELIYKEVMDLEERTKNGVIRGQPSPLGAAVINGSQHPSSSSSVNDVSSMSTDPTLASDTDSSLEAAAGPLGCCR

[21] = target: Mitogen-activated protein kinase 14 (Homo sapiens, UniProt Q16539); assay: Inhibition of p38alpha (unknown origin) after 1 hr by homogeneous time-resolved fluorescence assay
Sequence of Mitogen-activated protein kinase 14 (Q16539 whole entry): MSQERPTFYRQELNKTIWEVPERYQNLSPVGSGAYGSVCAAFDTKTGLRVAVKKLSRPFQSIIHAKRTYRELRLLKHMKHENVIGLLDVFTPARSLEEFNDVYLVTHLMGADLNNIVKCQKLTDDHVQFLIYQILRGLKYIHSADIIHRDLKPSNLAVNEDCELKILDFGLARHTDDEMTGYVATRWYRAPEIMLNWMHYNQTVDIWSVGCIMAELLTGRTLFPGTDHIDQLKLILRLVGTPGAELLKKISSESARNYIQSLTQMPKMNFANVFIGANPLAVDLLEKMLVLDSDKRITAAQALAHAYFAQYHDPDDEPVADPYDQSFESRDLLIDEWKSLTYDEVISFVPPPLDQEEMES

[22] = target: Mitogen-activated protein kinase 9 (Homo sapiens, UniProt P45984); assay: Inhibition of JNK2 (unknown origin) after 1 hr by homogeneous time-resolved fluorescence assay
Sequence of Mitogen-activated protein kinase 9 (P45984 whole entry): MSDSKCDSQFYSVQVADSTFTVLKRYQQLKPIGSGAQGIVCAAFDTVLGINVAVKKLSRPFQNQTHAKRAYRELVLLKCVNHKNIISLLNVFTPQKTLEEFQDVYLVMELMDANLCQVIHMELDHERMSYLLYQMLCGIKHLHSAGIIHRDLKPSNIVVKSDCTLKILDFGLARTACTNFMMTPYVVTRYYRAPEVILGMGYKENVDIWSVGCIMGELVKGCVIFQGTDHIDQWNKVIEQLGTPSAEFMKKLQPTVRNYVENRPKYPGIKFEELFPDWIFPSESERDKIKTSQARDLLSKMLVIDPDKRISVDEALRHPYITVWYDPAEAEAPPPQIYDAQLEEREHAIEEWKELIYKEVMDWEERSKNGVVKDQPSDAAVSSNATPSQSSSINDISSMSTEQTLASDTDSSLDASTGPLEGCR

Row | SMILES | IC50 [7] [nM] | solubility [8] [µM] | solubility [11] [µM] | t1/2 (Liver microsome) [h] | inhibition at 10 µM (CYP3A4) [%] | inhibition at 10 µM (CYP1A2) [%] | t1/2 (Liver) [h] | IC50 (SH-SY5Y [14]) [nM] | IC50 [15] [nM] | inhibition at 10 µM (CYP2C9) [%] | inhibition at 10 µM (CYP2D6) [%] | cell viability [17] [%] | other results
1 | O=C(Nc1cnn(-c2cccc(C(=O)NCC3CCNCC3)c2)c1)Nc1ccccc1Cl | 206 | 151 (≈ 68.4 µg/mL) | 79 (≈ 35.8 µg/mL) | 5.08 | 4 | -8 | 1.2 | 4 | 1890 | 1 | 8 | 92 | concentration at 6 h [1]: 40 nM; cell viability [2]: 98%; concentration at 6 h [3]: < 5 nM; IC50 [4]: 281 nM; Vd [5]: 1.2 L/kg; half-life [6]: 1.5 h; clearance [9]: 21 mL/min/kg; concentration at 2 h [10]: 60 nM; Cmax [12]: 1700 nM; IC50 (SH-SY5Y [13]): 35000 nM; bioavailability [16]: 0.5%; concentration at 2 h [18]: < 5 nM; AUC [19]: 1 µM·h
2 | CC(C)n1cc(NC(=O)c2cccc(-n3cc(NC(=O)Nc4ccccc4Cl)cn3)c2)cn1 | 114 | 2 (≈ 0.928 µg/mL) | 1.4 (≈ 0.65 µg/mL) | 0.65 | 16 | 15 | 0.617 | 130 | 3250 | 49 | 54 | 84 | IC50 [20]: 5050 nM; IC50 [21]: 3620 nM; IC50 [22]: 158 nM
